Results from patent US12617770B2, “IRAK inhibitor and preparation method therefor and use thereof” (WUHAN CREATERNA SCIENCE AND TECHNOLOGY CO., LTD., priority 2019, dated 2026).

Key:
[1] = target: T1, hERG potassium ion channel (Homo sapiens, UniProt Q12809); assay: hERG whole-cell patch clamp in HEK-293 cell line stably expressing hERG; type: cell-based; conditions: HEK-293 cells stably expressing hERG, pH 7.4, HEK-293 cells expressing hERG, mean ± spread
T1 construct: expressed in transfected cells; host or cells: HEK-293
Method: The working solutions of the test compounds were ultrasonically treated for 20 min.
Patch clamping: Under an inverted microscope, recording electrodes were controlled by micromanipulator to contact with the cell. A negative voltage was applied to create a G-omega shaped connection. After forming the G-omega shaped connection, a rapid capacitance compensation was given. Under the continuous negative voltage, the cell membrane was ruptured to form a whole-cell recording configuration. In the whole-cell recording configuration, slow capacitance compensation was given, and the values of membrane capacitance and series resistance were recorded. […]
The cover glasses planted with cells were placed in the recording chamber of an inverted microscope. […] The current detected in a cell in the negative control was used as the background for the cell. […]
[formula] Basic statistics were calculated for each concentration, including mean, standard deviation (SD), standard error (SE), and replicates (n). The dose-dependent curve was fitted with the following equation and the half maximal inhibitory concentration (IC50) of the test compounds was calculated: […]

[2] = Plasma protein binding (PPB), equilibrium dialysis, human plasma; type: in vitro ADME; conditions: 5 h at 37° C., read-out: Plasma protein binding (Bound %) Human (converted)
Method: (§1) The experiment is intended to determine plasma protein binding (PPB) data of the test compounds disclosed herein.
(§2) In the PPB experiment, the final administration matrix contained the test compound or a reference compound with a concentration of 1 μM and DMSO with a content of 0.2%.
(§3) Collecting samples in initial time: 25 μL of the matrix containing the compound was added into a blank 96-well collecting plate, and the plate was stored at −20° C.
(§4) An equilibrated dialysis device was prepared. 100 μL of buffer was added to the receiving side of the equilibrium dialysis plate. Then 100 μL of the administration matrix containing the compound or the reference compound was added into an administration side of the equilibrium dialysis plate. The prepared equilibrium dialysis plate was placed in a 37° C. shaker to be shaken for 5 h at 60 rpm.
(§5) Sample was prepared at the end of cultivation (5 h): Preparing sample in the receiving side: 25 μL of sample from a receiving side was taken out and placed in a 96-well sample collecting plate, and 25 μL of a corresponding matrix (blank plasma) was added for mixing: 200 μL of ACN containing an internal standard was added, shaken for 10 minutes at 600 rpm, and centrifuged at 5594 g for 15 min.
(§6) Preparing sample in the administration side: 25 μL of the sample containing test compound and reference compound from the administration side was taken out and 25 μL of a blank buffer was added for mixing; 200 μL of ACN containing an internal standard was added, shaken for 10 minutes at 600 rpm, and centrifuged at 5594 g for 15 min.
(§7) Preparing sample in initial time: the sample containing test compound and reference compound was re-melted at 37° C. in initial time and then mixed with the corresponding matrix (blank buffer) in the same volume (25 μL); 200 μL of ACN containing an internal standard was added, shaken for 10 minutes at 600 rpm, and centrifuged at 5594 g for 15 min.
(§8) After all the samples were centrifuged, 50 μL of a supernatant was taken and added into 50 μL of ultrapure water for mixing, and the samples were sent to liquid chromatography-mass spectrometry.

[3] = Plasma protein binding (PPB), equilibrium dialysis, rat plasma; type: in vitro ADME; conditions: 5 h at 37° C., read-out: Plasma protein binding (Bound %) Rat (converted)
Method: as §1, §2, §3, §4, §5, §6, §7, §8

TNF-α release = assay: Inhibition of cytokine TNF-α release in LPS-induced Balb/c female mice; type: in vivo; conditions: oral gavage 16 h before LPS (i.p. 0.2 mg/kg); serum 1.5 h after stimulation
Method: Female Balb/c mice were randomized into groups, each containing 4 mice, including a control+vehicle group, a model+vehicle group, a model+reference group and model+compound groups. The control animals received an intraperitoneal injection of normal saline (10 mL/kg) and the model animals received LPS stimulation (Sigma CAT #L2630, i.p., 10 mL/kg, 0.2 mg/kg). To the test compounds, DMSO, Solutol and 10 mM PBS were sequentially added to prepare a solution or suspension of required concentration for administration. For the vehicle, DMSO, Solutol and 10 mM PBS were mixed in a volume ratio of 5:15:80. The animals were administered through oral gavage (10 mL/kg) 16 h before LPS (or saline) stimulation at predetermined doses, and euthanized with CO2 at 1.5 h after the stimulation for cardiac blood collection. The whole blood was not anticoagulated, incubated in wet ice for 1.5 h, and centrifuged at 2000×g at 4° C. for 10 min to separate the serum. Serum was frozen at −80° C. for TNF-α assay. Quantification of TNF-α was done by TNF-α ELISA kit according to the manufacturer's instructions. The readings of absorbance at A450 were measured with a microplate reader SpectraMax i3x (Molecular Device) for calculating the inhibition of the compounds, and IC50 was calculated with GraphPad Prism 7.0 software. […] In particular, some exemplary compound inhibition rate values are as follows: […]

CYP2C9 = target: T2, CYP2C9 (Homo sapiens, UniProt P11712); assay: CYP450 inhibition in human liver microsomes, CYP2C9; type: in vitro ADME; conditions: pooled (mixed) human liver microsomes, probe diclofenac
T2 construct: co-incubated at 7 concentrations with human liver microsomes and five probe substrates; tissue Corning (USA); host or cells: mixed (pooled) human liver microsomes
Method: This study was intended to investigate the inhibitory effect of the test compounds on 5 major enzymes in human P450 superfamily, CYP1A2, 2C9, 2C19, 2D6 and 3A4-M. The mixed human liver microsomes used in this assay were purchased from Corning (USA). The test compound (compound 14) was co-incubated at 7 concentrations with human liver microsomes and five probe substrates (phenacetin for CYP1a2, diclofenac for CYP2C9, mephenytoin for CYP2C19, dextromethorphan for CYP2D6, midazolam for CYP3A4-M, mixed). The reaction was initiated by adding coenzyme NADPH, and terminated by adding acetonitrile containing internal standard. After the proteins were precipitated, the supernatant was centrifuged. The characteristic metabolites in the supernatant (acetaminophen for CYP1A2, 4-hydroxydiclofenac for CYP2C9, 4-hydroxymephenytoin for CYP2C19, dextrorphan for CYP2D6, 1-hydroxymidazolam for CYP3A4-M) were analyzed by LC-MS/MS. The influence of the test compounds on production of the characteristic metabolites was finally analyzed on the basis of the data obtained. A selective inhibitor (ketoconazole for CYP3A4-M) may be used as positive control. All samples were tested in duplicate.

T1 sequence (Q12809 whole entry): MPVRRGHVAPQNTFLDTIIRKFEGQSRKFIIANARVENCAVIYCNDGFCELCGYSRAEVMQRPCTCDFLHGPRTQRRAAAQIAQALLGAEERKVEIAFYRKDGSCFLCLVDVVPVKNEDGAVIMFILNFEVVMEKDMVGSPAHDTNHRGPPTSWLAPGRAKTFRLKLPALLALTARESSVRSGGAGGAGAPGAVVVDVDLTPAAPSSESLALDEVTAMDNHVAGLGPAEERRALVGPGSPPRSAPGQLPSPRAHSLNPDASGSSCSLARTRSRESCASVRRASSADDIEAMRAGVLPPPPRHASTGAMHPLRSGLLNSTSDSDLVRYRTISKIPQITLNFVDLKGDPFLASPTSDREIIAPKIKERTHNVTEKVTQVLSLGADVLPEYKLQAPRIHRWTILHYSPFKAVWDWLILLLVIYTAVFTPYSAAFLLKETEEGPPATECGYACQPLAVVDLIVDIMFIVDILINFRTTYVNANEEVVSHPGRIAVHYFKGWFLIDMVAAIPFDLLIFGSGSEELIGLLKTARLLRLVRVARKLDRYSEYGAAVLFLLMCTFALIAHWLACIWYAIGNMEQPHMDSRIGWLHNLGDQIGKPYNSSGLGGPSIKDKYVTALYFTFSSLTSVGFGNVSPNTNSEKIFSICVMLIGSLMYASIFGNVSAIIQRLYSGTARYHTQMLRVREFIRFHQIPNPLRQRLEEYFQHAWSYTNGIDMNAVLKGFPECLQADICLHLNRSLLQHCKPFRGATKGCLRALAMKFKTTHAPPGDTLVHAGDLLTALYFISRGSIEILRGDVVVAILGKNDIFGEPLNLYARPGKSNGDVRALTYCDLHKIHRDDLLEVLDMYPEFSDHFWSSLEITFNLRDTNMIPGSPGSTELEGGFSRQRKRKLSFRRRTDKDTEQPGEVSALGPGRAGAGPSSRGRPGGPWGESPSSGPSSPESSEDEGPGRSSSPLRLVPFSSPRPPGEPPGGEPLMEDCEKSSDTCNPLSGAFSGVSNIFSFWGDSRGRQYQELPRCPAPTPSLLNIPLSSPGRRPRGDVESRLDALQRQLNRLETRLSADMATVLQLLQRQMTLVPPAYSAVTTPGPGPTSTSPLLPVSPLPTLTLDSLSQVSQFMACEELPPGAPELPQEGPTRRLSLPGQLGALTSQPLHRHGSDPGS
T2 sequence (P11712 whole entry): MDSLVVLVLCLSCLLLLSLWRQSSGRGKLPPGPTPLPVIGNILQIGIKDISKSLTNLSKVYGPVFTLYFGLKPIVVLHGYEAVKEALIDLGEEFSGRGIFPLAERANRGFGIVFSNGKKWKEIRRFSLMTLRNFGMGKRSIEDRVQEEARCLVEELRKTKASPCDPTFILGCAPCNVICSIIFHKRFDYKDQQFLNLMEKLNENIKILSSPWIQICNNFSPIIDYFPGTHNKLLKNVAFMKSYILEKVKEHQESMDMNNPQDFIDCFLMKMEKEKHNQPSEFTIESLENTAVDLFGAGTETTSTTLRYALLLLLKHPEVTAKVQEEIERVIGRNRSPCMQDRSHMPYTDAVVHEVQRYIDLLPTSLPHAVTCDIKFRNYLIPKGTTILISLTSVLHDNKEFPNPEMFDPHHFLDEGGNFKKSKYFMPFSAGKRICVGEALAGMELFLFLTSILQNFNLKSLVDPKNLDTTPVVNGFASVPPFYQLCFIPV

SMILES	inhibition at 5 min, 30 µM [1] [%]	fraction unbound at 5 h, 1 μM [2]	fraction unbound at 5 h, 1 μM [3]	Inhibition rate (%) of TNF-α (TNF-α release) [%]	IC50 (CYP2C9) [µM]
COc1cc2nn([C@H]3CC[C@](C)(O)CC3)cc2cc1NC(=O)c1cccc(C)[n+]1[O-] [Compound 001, 2-((2-((1r,4r)-4-hydroxy-4-methylcyclohexyl)-6-methoxy-2H-indazol-5-yl)carbamoyl)-6-methylpyridine 1-oxide]	5.09	0.19	0.153	74.00	> 30
COc1cc2nn(CCC(C)(C)O)cc2cc1NC(=O)c1cccc(C)[n+]1[O-] [Compound 163, 2-((2-(3-hydroxy-3-methylbutyl)-6-methoxy-2H-indazol-5-yl)carbamoyl)-6-methylpyridine 1-oxide]	8.73	0.183	0.194	71.56	> 30
